Data on 2 compounds can be found in patent publication US20240383932A1, “Phenol Prodrugs” (Lilac Therapeutics, Inc., priority 2023, published 2024).

Converted amounts (≈) assume the structure as drawn. Read-outs that look alike come from different tables or passages of the source.

Data set [1] in a line: Pharmacokinetics after single dose oral administration in rats. The format is in vivo, male Sprague Dawley rats. The settings on record: rat; for half-life: po, 50 mg/kg. The protocol: The pharmacokinetics of ivacaftor (50 mg/kg in organic and 0.25% Methyl Cellulose in water suspension) in male Sprague Dawley rats after single dose oral administration and compound 15 in 0.25% Methyl Cellulose in water suspension at 108 mg-eq/kg (50 mg/kg equivalent to free base) 324 mg-eq/kg (150 mg/kg equivalent to free base) 540 mg-eq/kg (250 mg/kg equivalent to free base) and 756 mg-eq/kg (350 mg/kg equivalent to free base) were investigated. […] The plasma concentration vs. time profile for these experiments are show in FIG. 3.

Data set [2] can be described thus: Solubility in various buffers. It is filed as physicochemical. The settings on record: for pH: pH of solubility sample. The procedure: The solubility of crystalline compound 15 was measured in the various buffers.
[3] abbreviates: male, Sprague Dawley, plasma, ivacaftor 50 mg/kg, Crystalline Suspension (0.25% Methyl Cellulose in water).

Regarding `CC(C)OC(=O)[C@H](C)N[P@@](=O)(OCCN1CCOCC1)Oc1cc(NC(=O)c2c[nH]c3ccccc3c2=O)c(C(C)(C)C)cc1C(C)(C)C.O=C(O)CCC(=O)O` [Compound 15], the “dose dependence of exposure of ivacaftor, in words” value in data set [1] (crystalline aqueous suspension, dosed up to 350 mg/kg) was “dose proportional increase in the exposure of ivacaftor”. For the same compound, in data set [1] (dosed up to 350 mg/kg), the “reduction in AUC with crystalline aqueous suspension, in words” value was “such reduction was not observed”. Also, the “Observation after 24 hrs” value in data set [2] (FaSSIF.V2) is reported as “Suspension”; in data set [2] (FeSSIF.V2), “Clear”; in data set [2] (SGF) it was “Clear”; in data set [2] (Water), “Slightly Hazy”; in data set [2] (pH 6.8 PO4^3− buffer), “Suspension”. Besides, the “solubility compared with ivacaftor, in words” value in data set [2] (FeSSIF and simulated gastric fluid) is recorded as “significant improvement in solubility”. Further, the solubility in data set [2] (aqueous buffer, thermodynamic from solid, pH 6.8 PO4^3− buffer, read-out: Solubility) is less than 2 µg/mL; in data set [2] (simulated gastric fluid, thermodynamic from solid, SGF, read-out: Solubility), 1430 µg/mL; in data set [2] (thermodynamic from solid, FaSSIF.V2, read-out: Solubility) it was 86 µg/mL; in data set [2] (thermodynamic from solid, FeSSIF.V2, read-out: Solubility) it was 1810 µg/mL; in data set [2] (water, thermodynamic from solid, read-out: Solubility) it was 787 µg/mL. Besides, the pH was determined as 6.09 in data set [2] (FaSSIF.V2); 5.83 in data set [2] (FeSSIF.V2); 1.96 in data set [2] (SGF); 3.57 in data set [2] (Water); 6.71 in data set [2] (pH 6.8 PO4^3− buffer).

In turn, `CC(C)(C)c1cc(C(C)(C)C)c(NC(=O)c2c[nH]c3ccccc3c2=O)cc1O` [ivacaftor, N-(2,4-di-tert-butyl-5-hydroxyphenyl)-4-oxo-1,4-dihydroquinoline-3-carboxamide, reference compound] displayed an AUC(0-t) in data set [1] (setting [3]) of 14600 ng·h/mL. Further, in data set [1] (setting [3]), the concentration peaked (Cmax) at 586 ng/mL. Further, the half-life in data set [1] (male, Sprague Dawley, plasma, Organic Solution) is 10 h; in data set [1] (setting [3]), 20 h. For the same compound, the “reduction in AUC, crystalline suspension vs organic solution formulation” value in data set [1] (ivacaftor 50 mg/kg) came to 92%. In addition, the solubility in data set [2] (FaSSIF.V2, fassif, thermodynamic from solid, read-out: Solubility) is 15 µg/mL (≈ 38.2 µM); in data set [2] (FeSSIF.V2, fessif, thermodynamic from solid, read-out: Solubility) it was 152 µg/mL (≈ 387 µM); in data set [2] (FeSSIF.V2, ivacaftor as SDD, read-out: Solubility), 600 µg/mL (≈ 1530 µM); in data set [2] (SGF, simulated gastric fluid, thermodynamic from solid, read-out: Solubility) it was 21 µg/mL (≈ 53.5 µM); in data set [2] (Water), 7 µg/mL (≈ 17.8 µM); in data set [2] (phosphate buffer, aqueous buffer, thermodynamic from solid, pH 6.8 PO4^3− buffer, read-out: Solubility) it was 8 µg/mL (≈ 20.4 µM). The pH came out at 6.35 in data set [2] (FaSSIF.V2); 5.91 in data set [2] (FeSSIF.V2); 2.20 in data set [2] (SGF); 7.35 in data set [2] (Water); 6.71 in data set [2] (pH 6.8 PO4^3− buffer).

Broadly, the solubility is the concentration that dissolves in the medium under given conditions. Broadly, the AUC(0-t) is the area under the concentration-time curve up to a stated or last time point. For orientation: Cmax means the highest concentration seen after dosing. The term half-life denotes the time needed for the level to fall by half in the phase considered. Read a high half-life as slow loss.
